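The compound was tested at five concentrations on cells cultured in 96-well plates, with a 48-hour exposure period. At the TGI there is no net growth.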

In PubChem BioAssay (NCI) one finds TGI data, which are given here for 14 compounds.

Among the test systems are HS 578T breast; CAKI-1 renal; M14 melanoma; SK-MEL-5 melanoma; UO-31 renal; COLO 205 colon; NCI-H460 lung; SNB-19 CNS; A549 NSCLC; SK-OV-3 ovarian.
Common to all, as to experiment: DTP human tumour cell line panel, 48 h

Take `CN1Cc2c(ccc3c2OCO3)[C@@H]2[C@H](O)Cc3cc4c(cc3[C@@H]21)OCO4`: the TGI (as a rule, the concentration at which net growth stops) in the experiment with HS 578T breast was over 100 µM; in the experiment with CAKI-1 renal it was over 100 µM; in the experiment with M14 melanoma, over 28.4 µM; in the experiment with SK-MEL-5 melanoma, 40 µM; with UO-31 renal, over 100 µM; with COLO 205 colon, 4.55 µM. For the same compound, the TGI was over 100 µM in the experiment on NCI-H460 lung, over 26.5 µM in the experiment with SNB-19 CNS, over 100 µM in the experiment on A549 NSCLC and over 29.9 µM in the experiment with SK-OV-3 ovarian.
With `Cc1ccc(C(=O)C2CC3(CCC2(O)c2ccc(C)cc2)CC(=O)Nc2ccccc2C3=O)cc1` (stereo not given), the TGI with HS 578T breast was over 100 µM; in the experiment with CAKI-1 renal, over 100 µM; in the experiment with M14 melanoma, over 100 µM; in the experiment with SK-MEL-5 melanoma, 97.6 µM; with UO-31 renal, over 100 µM; in the experiment on COLO 205 colon, over 100 µM. Moreover, the TGI with NCI-H460 lung, in the experiment on SNB-19 CNS, with A549 NSCLC and in the experiment with SK-OV-3 ovarian was over 100 µM each time.
As for `C[C@@H](c1ccccc1)N(CC#N)[C@H]1CCC[C@]1(O)/C=C/c1ccc2c(c1)OCO2`, the TGI with HS 578T breast, in the experiment on CAKI-1 renal, with M14 melanoma, in the experiment on SK-MEL-5 melanoma, in the experiment with UO-31 renal and in the experiment on COLO 205 colon was over 25 µM each time. For the same compound, the TGI in the experiment with NCI-H460 lung, with SNB-19 CNS, with A549 NSCLC and with SK-OV-3 ovarian was over 25 µM throughout.
For the compound `O=C1Cc2c(-c3ccccc3)cc(-c3ccc(Cl)cc3)nc2-c2ccccc2N1`, the TGI in the experiment on HS 578T breast was 11.8 µM; in the experiment on CAKI-1 renal it was 16.2 µM; with M14 melanoma, over 70.4 µM; with SK-MEL-5 melanoma it was 17 µM; in the experiment on UO-31 renal, 7.31 µM; in the experiment with COLO 205 colon, 18 µM. Further, the TGI in the experiment on NCI-H460 lung was found to be 11.5 µM; in the experiment on SNB-19 CNS, 6.35 µM; with A549 NSCLC, 35.3 µM; with SK-OV-3 ovarian it was 7.85 µM.
As for `CC(=O)CC(=O)N1CCOC1=O`, the TGI in the experiment with HS 578T breast, in the experiment with CAKI-1 renal, in the experiment with M14 melanoma, in the experiment on SK-MEL-5 melanoma, in the experiment with UO-31 renal and with COLO 205 colon was over 10 µM throughout. In addition, the TGI in the experiment with NCI-H460 lung, in the experiment with SNB-19 CNS, with A549 NSCLC and with SK-OV-3 ovarian was over 10 µM each time.
Turning to `CC(C)S1=C2C(=O)CC(C)(C)CC2=Nc2ccccc21` (stereo not given), the TGI in the experiment on HS 578T breast, with CAKI-1 renal, in the experiment with M14 melanoma, in the experiment with SK-MEL-5 melanoma, in the experiment with UO-31 renal and in the experiment on COLO 205 colon was over 100 µM in each case. The TGI in the experiment on NCI-H460 lung, with SNB-19 CNS, with A549 NSCLC and with SK-OV-3 ovarian was over 100 µM each time.
Take `CC1SCCc2nc3ccccc3n21` (stereo not given): the TGI in the experiment on HS 578T breast, in the experiment on CAKI-1 renal, with M14 melanoma, in the experiment with SK-MEL-5 melanoma, with UO-31 renal and in the experiment on COLO 205 colon was over 100 µM throughout. The TGI in the experiment on NCI-H460 lung, with SNB-19 CNS, with A549 NSCLC and with SK-OV-3 ovarian was over 100 µM in each case.
As to `Cc1nnc(N)s/c1=N/O`, the TGI with HS 578T breast, in the experiment on CAKI-1 renal, in the experiment with M14 melanoma, in the experiment on SK-MEL-5 melanoma, in the experiment on UO-31 renal and with COLO 205 colon was over 100 µM each time. Besides, the TGI with NCI-H460 lung, in the experiment with SNB-19 CNS, in the experiment on A549 NSCLC and in the experiment on SK-OV-3 ovarian was over 100 µM each time.
In the case of `COC(=O)C1CCC(=S)N1C(C)=O` (stereo not given), the TGI in the experiment with HS 578T breast, with CAKI-1 renal, in the experiment with M14 melanoma, with SK-MEL-5 melanoma, in the experiment on UO-31 renal and with COLO 205 colon was over 100 µM each time. The TGI with NCI-H460 lung, in the experiment with SNB-19 CNS, with A549 NSCLC and in the experiment with SK-OV-3 ovarian was over 100 µM throughout.
Take `COc1ccc(-c2cc(-c3ccc(Nc4ccnc5cc(C(F)(F)F)ccc45)cc3)nc(N)c2C#N)c2ccccc12`: the total growth inhibition concentration (TGI) in the experiment with HS 578T breast, in the experiment on CAKI-1 renal, in the experiment on M14 melanoma, with SK-MEL-5 melanoma, with UO-31 renal and in the experiment with COLO 205 colon was over 100 µM each time. Also, the TGI with NCI-H460 lung, in the experiment on SNB-19 CNS, with A549 NSCLC and with SK-OV-3 ovarian was over 100 µM in each case.
For `N#Cc1c2c(c(Nc3ccc(Cl)cc3)n3c1nc1ccccc13)CCCC2`, the TGI in the experiment on HS 578T breast was over 87.4 µM; in the experiment on CAKI-1 renal, over 100 µM; in the experiment with M14 melanoma, over 100 µM; in the experiment with SK-MEL-5 melanoma it was over 100 µM; in the experiment on UO-31 renal, over 100 µM; in the experiment with COLO 205 colon it was over 100 µM. Further, the TGI is over 100 µM with NCI-H460 lung, over 64.2 µM in the experiment on SNB-19 CNS, over 100 µM in the experiment on A549 NSCLC and over 100 µM with SK-OV-3 ovarian.
With `COc1cc(CC2C(=O)OCC2Cc2ccc(OC)c(OC)c2)ccc1O` (stereo not given), the concentration for total growth inhibition (TGI) with HS 578T breast, in the experiment with CAKI-1 renal, in the experiment on M14 melanoma, in the experiment with SK-MEL-5 melanoma, in the experiment with UO-31 renal and in the experiment on COLO 205 colon was over 100 µM throughout. Moreover, the TGI in the experiment with NCI-H460 lung, with SNB-19 CNS, in the experiment with A549 NSCLC and in the experiment on SK-OV-3 ovarian was over 100 µM throughout.
For the compound `COc1ccc(/[N+]([O-])=C/c2ccccc2OC(=S)S)cc1`, the total growth inhibition concentration (TGI) in the experiment with HS 578T breast is over 100 µM; in the experiment with CAKI-1 renal, over 100 µM; with M14 melanoma, 91.5 µM; with SK-MEL-5 melanoma, over 100 µM; in the experiment on UO-31 renal, over 100 µM; in the experiment on COLO 205 colon, over 100 µM. For the same compound, the TGI with NCI-H460 lung, in the experiment with SNB-19 CNS, in the experiment on A549 NSCLC and in the experiment on SK-OV-3 ovarian was over 100 µM in each case.
For the compound `CC(=O)OC1C(C)OC(OC2C[C@](O)(C(C)=O)Cc3c(O)c4c(c(O)c32)C(=O)c2ccccc2C4=O)C(F)C1OC(C)=O` (stereo not given in full), the TGI in the experiment with HS 578T breast was 9.89 µM; in the experiment on CAKI-1 renal, 1.39 µM; with M14 melanoma it was 10.7 µM; in the experiment on SK-MEL-5 melanoma it was 2.18 µM; with UO-31 renal, 0.567 µM; in the experiment with COLO 205 colon it was over 100 µM. Further, the TGI in the experiment on NCI-H460 lung worked out at 1.53 µM; in the experiment on SNB-19 CNS, 4.99 µM; in the experiment with A549 NSCLC it was 2.17 µM; in the experiment on SK-OV-3 ovarian, 22.1 µM.
